# Assay results reported in patent US20170349593A1, “BTK INHIBITORS” (MERCK SHARP & DOHME CORP., priority 2014, published 2017).
# Columns and labels:
# [1] = molecular target: T1, BTK enzyme (recombinant full-length BTK, hBTK) (Homo sapiens, UniProt Q06187); test: Btk enzyme activity assay (LANCE TR-FRET); assay type: biochemical; conditions: 50 pM hBTK, 25 μM ATP, 60 minute compound and enzyme incubation, concentration range 1 μM to 0.017 nM, read-out: BTK binding IC50
# T1 construct: recombinant protein from baculovirus-transfected S 19 cells: full-length BTK, 6 HIS-tag cleaved; 6 HIS-tag (cleaved yes); made in house
# [2] = test system: adenosine uptake into HeLa cells; test: [3H]Adenosine uptake assay; assay type: cell-based; conditions: Homo sapiens; accumulation of [3H]adenosine into HeLa cells; concentration range 10 μM to 0.032 nM; read-out: ADU inhibition IC50
# Method: Compounds are also screened in an adenosine uptake functional cellular assay using the protocol described below:
# Adenosine uptake activity was determined by monitoring the accumulation of tritiated adenosine into HeLa cells (ATCC catalog #CCL-2) using a PMT-based radiometric detection instrument. In this assay, the potency (IC50) of each compound was determined from a ten point (1:3 serial dilution; final compound concentration range in assay from 10 μM to 0.032 nM) titration curve using the following outlined procedure. To each well of a 96-well CytoStar-T scintillating microplate (Perkin Elmer Catalog #RPNQ0163), 25 000 HeLa cells in 100 μL of growth medium comprising: Minimum Essential Media (Life Technologies Catalog #11095-080)+10% (v/v) foetal bovine serum (FBS; Sigma Aldrich Catalog #F2442) was added. These cells were incubated overnight at 37° C. in a humidified atmosphere with 5% (v/v) CO2. After this time the growth medium was removed and replaced with 40 μL assay medium comprising: Hanks balanced salts solution (HBSS; Thermo Fisher Catalog # SH30268.01)+5% (v/v) FBS. Compound stock solutions in DMSO were diluted in assay medium to 2.5× final compound concentration maintaining a constant DMSO concentration of 0.25% (v/v). 40 μL of compound in assay medium was dispensed into individual wells of the Cytostar-T plates and the plates were incubated for 30 minutes under ambient laboratory conditions. Following this incubation, 20 μL of 500 nM [^3H] adenosine (American Radiolabeled Chemicals Inc. Catalog #ART0287) in assay medium was added and incubated for a further 60 minutes under ambient laboratory conditions. The amount of radiolabel accumulation was then determined using a Perkin Elmer Topcount NXT microplate reader. In brief, HeLa cells adhere to the bottom of the Cytostar-T plate, uptake of [^3H]adenosine into these cells brings the radiolabel into sufficient proximity to excite the scintillant in the base of the plates. These events are captured by single PMT, time-resolved coincidence counting. IC50 values were determined by 4 parameter robust fit of counts per second values vs. (Log10)) compound concentrations.
# T1 sequence (Q06187 whole entry): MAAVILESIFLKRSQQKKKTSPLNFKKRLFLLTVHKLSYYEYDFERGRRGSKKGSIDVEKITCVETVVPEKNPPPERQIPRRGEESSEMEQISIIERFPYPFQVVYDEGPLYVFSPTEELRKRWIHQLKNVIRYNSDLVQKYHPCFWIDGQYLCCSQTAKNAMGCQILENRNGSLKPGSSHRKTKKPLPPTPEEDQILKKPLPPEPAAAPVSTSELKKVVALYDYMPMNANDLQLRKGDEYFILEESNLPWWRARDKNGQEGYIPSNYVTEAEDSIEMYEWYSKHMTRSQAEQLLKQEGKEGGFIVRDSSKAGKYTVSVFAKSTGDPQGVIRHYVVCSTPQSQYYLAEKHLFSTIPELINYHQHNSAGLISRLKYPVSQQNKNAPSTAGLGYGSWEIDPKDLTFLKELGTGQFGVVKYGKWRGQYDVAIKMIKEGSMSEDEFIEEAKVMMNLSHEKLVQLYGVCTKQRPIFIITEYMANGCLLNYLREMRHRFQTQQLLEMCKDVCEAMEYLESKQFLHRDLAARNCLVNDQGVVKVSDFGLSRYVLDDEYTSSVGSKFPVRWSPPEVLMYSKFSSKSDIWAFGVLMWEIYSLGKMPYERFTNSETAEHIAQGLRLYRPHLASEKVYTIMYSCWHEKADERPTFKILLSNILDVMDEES
IC50 [1],IC50 [2],Structure (SMILES)
1.94 nM,930 nM,"COc1cc(C(=O)Nc2cc(C(F)(F)F)ccn2)ccc1-c1nc([C@H]2CN(Cc3cnn(C)c3)[C@@H](C)CO2)n2c(Cl)cnc(N)c12 [Example 25, 4-(8-amino-5-chloro-3-{(2R,5S)-5-methyl-4-[(1-methyl-1H-pyrazol-4-yl)methyl]morpholin-2-yl}imidazo[1,5-a]pyrazin-1-yl)-3-methoxy-N-[4-(trifluoromethyl)pyridin-2-yl]benzamide]"
3.62 nM,1020 nM,"CCN1C[C@H](c2nc(-c3ccc(C(=O)Nc4cc(C(F)(F)F)ccn4)cc3OC)c3c(N)ncc(Cl)n23)OC[C@@H]1C [Example 26, 4-{8-amino-5-chloro-3-[(2R,5S)-4-ethyl-5-methylmorpholin-2-yl]imidazo[1,5-a]pyrazin-1-yl}-3-methoxy-N-[4-(trifluoromethyl)pyridin-2-yl]benzamide]"
9.31 nM,1680 nM,"COc1cc(C(=O)Nc2cc(C(F)(F)F)ccn2)ccc1-c1nc([C@H]2CN(C=O)[C@@H](C)CO2)n2ccnc(N)c12 [Example 36, 4-{8-amino-3-[(2R,5S)-4-formyl-5-methylmorpholin-2-yl]imidazo[1,5-a]pyrazin-1-yl}-3-methoxy-N-[4-(trifluoromethyl)pyridin-2-yl]benzamide]"
2.25 nM,2800 nM,"COc1cc(C(=O)Nc2cc(C(F)(F)F)ccn2)ccc1-c1nc([C@H]2CN(C(=O)[C@H](C)O)[C@@H](C)CO2)n2c(Cl)cnc(N)c12 [Example 38, 4-(8-amino-5-chloro-3-{(2R,5S)-4-[(2S)-2-hydroxypropanoyl]-5-methylmorpholin-2-yl}imidazo[1,5-a]pyrazin-1-yl)-3-methoxy-N-[4-(trifluoromethyl)pyridin-2-yl]benzamide]"
5.87 nM,3800 nM,"CCOc1cc(C(=O)Nc2cc(C(F)(F)F)n(C)n2)ccc1-c1nc([C@H]2CN(C3CCOCC3)[C@@H](C)CO2)n2ccnc(N)c12 [Example 39, 4-{8-amino-3-[(2R,5S)-5-methyl-4-(tetrahydro-2H-pyran-4-yl)morpholin-2-yl]imidazo[1,5-a]pyrazin-1-yl}-3-ethoxy-N-[1-methyl-5-(trifluoromethyl)-1H-pyrazol-3-yl]benzamide]"
5.87 nM,4620 nM,"CCOc1cc(C(=O)Nc2cc(C(F)(F)F)n(C)n2)ccc1-c1nc([C@H]2CN(C3CCOCC3)[C@@H](C)CO2)n2c(Cl)cnc(N)c12 [Example 40, 4-{8-amino-5-chloro-3-[(2R,5S)-5-methyl-4-(tetrahydro-2H-pyran-4-yl)morpholin-2-yl]imidazo[1,5-a]pyrazin-1-yl}-3-ethoxy-N-[1-methyl-5-(trifluoromethyl)-1H-pyrazol-3-yl]benzamide]"

# More lines, now with the values behind:
Structure (SMILES),IC50 [1],IC50 [2]
"CCOc1cc(C(=O)Nc2cc(C(F)(F)F)ccn2)ccc1-c1nc([C@H]2CN(Cc3cnn(C)c3)[C@@H](C)CO2)n2c(Cl)cnc(N)c12 [Example 23, 4-(8-amino-5-chloro-3-{(2R,5S)-5-methyl-4-[(1-methyl-1H-pyrazol-4-yl)methyl]morpholin-2-yl}imidazo[1,5-a]pyrazin-1-yl)-3-ethoxy-N-[4-(trifluoromethyl)pyridin-2-yl]benzamide]",3.02 nM,1200 nM
"CCOc1cc(C(=O)Nc2cc(C(F)(F)F)ccn2)ccc1-c1nc([C@H]2CN(CC)[C@@H](C)CO2)n2c(Cl)cnc(N)c12 [Example 24, 4-{8-amino-5-chloro-3-[(2R,5S)-4-ethyl-5-methylmorpholin-2-yl]imidazo[1,5-a]pyrazin-1-yl}-3-ethoxy-N-[4-(trifluoromethyl)pyridin-2-yl]benzamide]",1.54 nM,2350 nM
"CCOc1cc(C(=O)Nc2cc(C(F)(F)F)ccn2)ccc1-c1nc([C@H]2CN(C3CCOCC3)[C@@H](C)CO2)n2c(Cl)cnc(N)c12 [Example 27, 4-{8-amino-5-chloro-3-[(2R,5S)-5-methyl-4-(tetrahydro-2H-pyran-4-yl)morpholin-2-yl]imidazo[1,5-a]pyrazin-1-yl}-3-ethoxy-N-[4-(trifluoromethyl)pyridin-2-yl]benzamide]",2.22 nM,1880 nM
"COCCC(=O)N1CC(N2C[C@H](c3nc(-c4ccc(C(=O)Nc5cc(C(F)(F)F)ccn5)cc4OC)c4c(N)nccn34)OC[C@@H]2C)C1 [Example 28, 4-(8-amino-3-{(2R,5S)-4-[1-(3-methoxypropanoyl)azetidin-3-yl]-5-methylmorpholin-2-yl}imidazo[1,5-a]pyrazin-1-yl)-3-methoxy-N-[4-(trifluoromethyl)pyridin-2-yl]benzamide]",7.61 nM,≥ 10000 nM
"COc1cc(C(=O)Nc2cc(C(F)(F)F)ccn2)ccc1-c1nc([C@H]2CN(C3CN(C(=O)C4CC4)C3)[C@@H](C)CO2)n2ccnc(N)c12 [Example 29, 4-(8-amino-3-{(2R,5S)-4-[1-(cyclopropylcarbonyl)azetidin-3-yl]-5-methylmorpholin-2-yl}imidazo[1,5-a]pyrazin-1-yl)-3-methoxy-N-[4-(trifluoromethyl)pyridin-2-yl]benzamide]",3.45 nM,3860 nM
"COc1cc(C(=O)Nc2cc(C(F)(F)F)ccn2)ccc1-c1nc([C@H]2CN(C3CN(Cc4c(F)cccc4F)C3)[C@@H](C)CO2)n2ccnc(N)c12 [Example 30, 4-(8-amino-3-{(2R,5S)-4-[1-(2,6-difluorobenzyl)azetidin-3-yl]-5-methylmorpholin-2-yl}imidazo[1,5-a]pyrazin-1-yl)-3-methoxy-N-[4-(trifluoromethyl)pyridin-2-yl]benzamide]",10.7 nM,1040 nM
"COc1cc(C(=O)Nc2cc(C(F)(F)F)ccn2)ccc1-c1nc([C@H]2CN(C3CN(Cc4ccc(F)cc4)C3)[C@@H](C)CO2)n2ccnc(N)c12 [Example 31, 4-(8-amino-3-{(2R,5S)-4-[1-(4-fluorobenzyl)azetidin-3-yl]-5-methylmorpholin-2-yl}imidazo[1,5-a]pyrazin-1-yl)-3-methoxy-N-[4-(trifluoromethyl)pyridin-2-yl]benzamide]",4.49 nM,1040 nM
"COc1cc(C(=O)Nc2cc(C(F)(F)F)ccn2)ccc1-c1nc([C@H]2CN(C3CN(Cc4ccccc4F)C3)[C@@H](C)CO2)n2ccnc(N)c12 [Example 32, 4-(8-amino-3-{(2R,5S)-4-[1-(2-fluorobenzyl)azetidin-3-yl]-5-methylmorpholin-2-yl}imidazo[1,5-a]pyrazin-1-yl)-3-methoxy-N-[4-(trifluoromethyl)pyridin-2-yl]benzamide]",6.41 nM,1070 nM
"COCCC(=O)N1CC(C(=O)N2C[C@H](c3nc(-c4ccc(C(=O)Nc5cc(C(F)(F)F)ccn5)cc4OC)c4c(N)nccn34)OC[C@@H]2C)C1 [Example 33, 4-{8-amino-3-[(2R,5S)-4-{[1-(3-methoxypropanoyl)azetidin-3-yl]carbonyl}-5-methylmorpholin-2-yl]imidazo[1,5-a]pyrazin-1-yl}-3-methoxy-N-[4-(trifluoromethyl)pyridin-2-yl]benzamide]",2.05 nM,≥ 10000 nM
"COc1cc(C(=O)Nc2cc(C(F)(F)F)ccn2)ccc1-c1nc([C@H]2CN(C(=O)C3CN(C(=O)C4CC4)C3)[C@@H](C)CO2)n2ccnc(N)c12 [Example 34, 4-{8-amino-3-[(2R,5S)-4-{[1-(cyclopropylcarbonyl)azetidin-3-yl]carbonyl}-5-methylmorpholin-2-yl]imidazo[1,5-a]pyrazin-1-yl}-3-methoxy-N-[4-(trifluoromethyl)pyridin-2-yl]benzamide]",2.65 nM,≥ 10000 nM
"COc1cc(C(=O)Nc2cc(C(F)(F)F)ccn2)ccc1-c1nc([C@H]2CN(C(=O)C3CN(Cc4c(F)cccc4F)C3)[C@@H](C)CO2)n2ccnc(N)c12 [Example 35, 4-{8-amino-3-[(2R,5S)-4-{[1-(2,6-difluorobenzyl)azetidin-3-yl]carbonyl}-5-methylmorpholin-2-yl]imidazo[1,5-a]pyrazin-1-yl}-3-methoxy-N-[4-(trifluoromethyl)pyridin-2-yl]benzamide]",3.21 nM,747 nM
"COc1cc(C(=O)Nc2cc(C(F)(F)F)ccn2)ccc1-c1nc([C@H]2CN(C(=O)C3CN(Cc4ccccc4F)C3)[C@@H](C)CO2)n2ccnc(N)c12 [Example 37, 4-{8-amino-3-[(2R,5S)-4-{[1-(2-fluorobenzyl)azetidin-3-yl]carbonyl}-5-methylmorpholin-2-yl]imidazo[1,5-a]pyrazin-1-yl}-3-methoxy-N-[4-(trifluoromethyl)pyridin-2-yl]benzamide]",2.77 nM,702 nM
